biological target: T1, Prostaglandin G/H synthase 1 (Ovis aries, UniProt P05979); assay: Inhibition of ovine COX-1 by enzyme immuno assay
T1 sequence (P05979 whole entry): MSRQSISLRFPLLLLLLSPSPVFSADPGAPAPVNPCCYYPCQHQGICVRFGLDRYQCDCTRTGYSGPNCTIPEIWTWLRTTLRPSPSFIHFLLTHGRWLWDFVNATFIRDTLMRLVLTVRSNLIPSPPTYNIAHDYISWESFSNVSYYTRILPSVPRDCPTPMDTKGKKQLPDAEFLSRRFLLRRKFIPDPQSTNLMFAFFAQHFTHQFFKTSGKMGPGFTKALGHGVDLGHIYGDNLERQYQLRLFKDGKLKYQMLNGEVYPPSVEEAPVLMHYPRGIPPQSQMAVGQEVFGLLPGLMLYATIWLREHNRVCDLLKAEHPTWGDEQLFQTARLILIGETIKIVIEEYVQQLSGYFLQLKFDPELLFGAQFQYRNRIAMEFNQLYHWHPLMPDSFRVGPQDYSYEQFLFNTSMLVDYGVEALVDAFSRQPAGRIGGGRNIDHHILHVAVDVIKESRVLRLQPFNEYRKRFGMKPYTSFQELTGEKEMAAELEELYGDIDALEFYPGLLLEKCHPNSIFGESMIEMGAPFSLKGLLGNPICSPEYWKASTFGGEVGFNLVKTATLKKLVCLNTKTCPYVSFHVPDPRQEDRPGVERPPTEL

SMILES | IC50 [µM]
Fc1ccc(/N=C/c2cn(Cc3ccccc3)c3ccccc23)cc1 | 91.1
O=C(c1ccccc1)n1cc(/C=N/c2ccc(Cl)cc2)c2ccccc21 | 86.1
FC(F)(F)c1ccc(/N=C/c2cn(Cc3ccccc3)c3ccccc23)cc1 | 95.5
FC(F)(F)c1ccc(/N=C/c2c[nH]c3ccccc23)cc1 | 78.2
Cc1ccc(/N=C/c2cn(C(=O)c3ccccc3)c3ccccc23)cc1 | 80.2
O=C(c1ccccc1)n1cc(/C=N/c2ccc(C(F)(F)F)cc2)c2ccccc21 | > 100
Cc1ccc(/N=C/c2cn(Cc3ccccc3)c3ccccc23)cc1 | 81.5
Fc1ccc(/N=C/c2c[nH]c3ccccc23)cc1 | 68.4
Cc1ccc(/N=C/c2c[nH]c3ccccc23)cc1 | 62.3
O=C(c1ccccc1)n1cc(/C=N/c2ccc(F)cc2)c2ccccc21 | > 100

— ChEMBL document CHEMBL1955864, “N-1 and C-3 substituted indole Schiff bases as selective COX-2 inhibitors: synthesis and biological evaluation” (Bioorg Med Chem Lett, 2012)
